Data: patent US10471063B2, “Drug combination of PDE3/PDE4 inhibitor and muscarinic receptor antagonist” (VERONA PHARMA PLC, priority 2013, dated 2019)
Like-named read-outs stand apart in the source and are kept apart here. Marks after values point to notes of the source that are not given here.

Legend:
[1] = system: airways obstruction induced by bombesin in guinea pigs; assay: Reversal of bombesin-induced airways obstruction (total lung resistance); type: in vivo
Protocol: (§1) Guinea pigs were anaesthetised and ventilated. Airway obstruction was induced by the intravenous administration of bombesin (2 μg/ml; 5 ml/hr). Bronchodilation was induced by the iv. administration of RPL554 alone at various doses, or in combination with sub maximal doses of atropine (2 μg/kg). […] Total lung resistance (RL) and mean arterial blood pressure were measured. Data are expressed as % reduction in airways obstruction or blood pressure.

[2] = system: human isolated bronchial rings; assay: Relaxation of human isolated bronchial rings pre-contracted with acetylcholine (EC70); synergy analysis (Bliss Independence, Berenbaum); type: cell-based
Excerpt: In the laboratory, airways were dissected from connective and alveolar tissues. Then, segmental bronchi were isolated and stored overnight in KH buffer solution at refrigeration temperature. […] Bronchial rings were mounted on hooks in the organ baths where one hook was attached with threaded to a stationary rod and the other hook tied with thread to an isometric force displacement transducer. […] Then, concentration response curves were constructed to test individual compound RPL554 and muscarinic receptor antagonist alone; as well as RPL554 administered in combination with a muscarinic receptor antagonist in order to produce isobolar graphs as described elsewhere (Greco et al., 1995; Tallarida, 2001; Goldoni and Johansson, 2007; Boik et al., 2008; Lee, 2010). […] Goodman et al., 2008). E/Emax was expressed as percentage of Emax elicited by the contractile agents; […] The analysis of the potential synergism between RPL554 plus muscarinic receptor antagonist was measured by applying the Berenbaum method, the Bliss Independence (BI) criterion and the Loewe Additivity (LA) model through curved isoboles (Berenbaum, 1977; Greco et al., 1995; Grabovsky and Tallarida, 2004; Tallarida, 2006; Goldoni and Johansson, 2007; Tallarida and Raffa, 2010). […] Lee, 2010). The BI theory for two agents is expressed by the following equation: E(x,y)=Ex+Ey-(Ex*Ey), where E is the fractional effect, and x and y are the concentrations of two compounds in a combination experiment. If the combination effect is higher than the expected value from the above equation, the interaction is considered synergistic, while if this effect is lower, the interaction is antagonistic. […] In this study, the BI equation was characterized by X=RPL554 and Y=muscarinic receptor antagonist. […] The additive response (Eab) for each dose combination with respect to B was then calculated by insertion of B into EB=f(B). The difference between the observed relaxation response to the combination doses and the additive response was calculated and analysed using a one sample t-test and for multiple comparisons, the probability was adjusted for multiple comparisons using a Bonferroni correction. For illustrative purposes, the 1:1 dose combinations were analysed for synergy. […] Tallarida, 2001; Goldoni and Johansson, 2007; Boik et al., 2008; Lee, 2010).

human isolated bronchi = assay: Duration of action on EFS (3, 10, 25 Hz)-contracted human isolated bronchi, RPL554 and glycopyrronium at EC30; type: cell-based; conditions: administered alone
Protocol: Bronchial rings from 6 patients were incubated in Krebs-Henseleit solution (37° C.) aerated with O2/CO2 (95/5%) under 0.5-1.0 g tension. The duration of action (30% maximal relaxation, EC30) of RPL554 and glycopyrronium, alone or in combination, was studied in tissue contracted with 3, 10 or 25 Hz electrical field stimulation (EFS). Bronchial tone was expressed as % of maximal response to papaverine (Emax) and the area under the curve (AUC) of the contractile response was assessed. Drug mixture effects were analyzed by Bliss Independence theory. Values (n=3) are mean±SEM.

[3] = system: human isolated bronchioles (small bronchi <1 mm diameter); assay: Relaxation of small human bronchi in precision cut lung slices contracted with carbachol (EC70); type: cell-based; conditions: for IC50: Homo sapiens, relaxation of bronchioles, CCh EC70, mean±SEM, n=3, read-out: pD2 (negative logarithm of IC50) (converted)
Protocol: Precision cut lung slices (PCLSs) from 6 patients were incubated in Krebs-Henseleit solution (37° C.) aerated with O2/CO2 (95:5%). The concentration response to RPL554 and glycopyrronium, administered alone and in combination at isoeffective concentrations, was assessed at sub-maximal contraction (70% maximum, EC70) induced by carbachol (CCh). […] Drug mixture effects were analyzed by Bliss Independence theory. Values (n=3) are mean±SEM.

[4] = system: passively sensitized human isolated bronchi; assay: Contraction induced by histamine in passively sensitized human bronchi pre-incubated with RPL554; type: cell-based
Protocol: Human isolated bronchial rings were rotated overnight at room temperature in tubes containing KH buffer solution in the absence (non-sensitized control rings) or the presence of 10% vol^−1 sensitizing serum (sensitized rings) as described elsewhere (Watson et al., 1997; Rabe, 1998). Subjects suffering from atopic asthma (total IgE>250 U ml^−1 specific against common aeroallergens) during exacerbation provided signed consent for serum donation. Sera was prepared by centrifugation of whole blood and sera samples were frozen at −80° C. in […] until required.
The next morning, after removal of adhering alveolar and connective tissues, bronchial rings were transferred into an organ bath containing KH buffer (37° C.) and continuously gassed with a 95% O2/5% CO2. Tissues were pre-incubated for 30 min with RPL554 (1, 10 and 100 μM) and then followed (without washing) by the construction of concentration responses curve to histamine (10 nM-1 mM) in the presence of RPL554.
Appropriate curve-fitting to a sigmoidal model was used to calculate the effect (E), the Emax and the concentration required to cause a 50% maximal effect (EC50). The equation used was log [agonist] vs. response, Variable slope, expressed as Y=Bottom+(Top−Bottom)/{1+10^[(Log EC50−X)*HillSlope]} (Motulsky and Christopoulos, 2004; Goodman et al., 2008). E/Emax was expressed as percentage of Emax elicited by the contractile agents; EC50 values were converted to pD2 for statistical analysis (Goodman et al., 2008) and the relaxant responses were expressed as a percentage of papaverine (500 μM) induced relaxation.

[5] = system: human isolated bronchial preparations; assay: Inhibition of EFS (10 Hz)-induced contraction of human isolated bronchial rings; type: cell-based
Protocol: Regions of macroscopically normal lungs were taken from uninvolved areas resected from 24 subjects (11 male and 13 female, 60.1±1.6 years old) undergoing lobectomy surgery for lung cancer, but without a history of chronic airway disease.
Airways were immediately placed into oxygenated Krebs-Henseleit buffer solution (KH) (mM: NaCl 119.0, KCl 5.4, CaCl2 2.5, KH2PO4 1.2, MgSO4 1.2, NaHCO3 25.0, glucose 11.7; pH 7.4) containing the cyclooxygenase (COX) inhibitor indomethacin (5.0 μM), and transported at 4° C. from the “Regina Elena National Cancer Institute” or the “Sant' Andrea Hospital” to the Respiratory Research Laboratory in the Surgery and Medicine Faculty of “Tor Vergata University”, Rome, Italy. None of the subjects were chronically treated with theophylline, β2-agonists or glucocorticosteroids. Serum IgE levels determined on the day of surgery were in the normal range. Preoperative lung function parameters were generally normal and there were no signs of respiratory infections.
In the laboratory, airways were dissected from connective and alveolar tissues. Then, segmental bronchi were isolated and stored overnight in KH buffer solution at refrigeration temperature. […]
Human bronchi were placed in organ baths containing KH buffer solution (37° C.) medicated with indomethacin (5.0 μM), bubbled with 95% O2/5% CO2 and suspended under passive tension (0.5-1.0 g). […] Changes in isometric tension were measured with a transducer (Fort 10 WPI, Basile, Instruments, Italy) and the tissue responsiveness was assessed by acetylcholine (100 μM); when the response reached a plateau, rings were washed three times and allowed to equilibrate for 45 min. […]
Bronchial contractile tension induced by EFS was measured as a percentage of control bronchi, and polynomial curves were constructed by fitting models of biological data using nonlinear regression as described elsewhere (Motulsky and Christopoulos, 2004). […]

[6] = Mean arterial blood pressure in bombesin-treated anaesthetised guinea pigs; type: in vivo; conditions: RPL554 20 μg/kg iv (combination: + 2 μg/kg atropine)
Protocol: as §1

CN1[C@@H]2CC[C@H]1C[C@@H](OC(=O)C(CO)c1ccccc1)C2 (some centres unmarked) [atropine, reference compound]
reduction in airways obstruction ([1]; atropine 2 μg/kg alone): 22.3 ± 4.9% | EC50 ([2]; read-out: EC50 (geomean, 95% CI)): 1180 nM | Emax ([2]; read-out: Emax (relaxation)): 66 ± 14%

C[N+]1(C)CCC(OC(=O)C(O)(c2ccccc2)C2CCCC2)C1 (centres unmarked) [glycopyrronium, reference compound]
Time for which the effect was detectable (human isolated bronchi): 4 h | Time of maximal relaxation (human isolated bronchi): 50 ± 10 min | Effect on CCh-induced contraction [3]: abolished | IC50 [3]: 0.631 nM

COc1cc2c(cc1OC)-c1cc(=Nc3c(C)cc(C)cc3C)n(CCNC(N)=O)c(=O)n1CC2 [RPL554, 9,10-Dimethoxy-2-(2,4,6-trimethylphenylimino)-3-(N-carbamoyl-2-aminoethyl)-3,4,6,7-tetrahydro-2H-pyrimido[6,1-a]isoquinolin-4-one]
% Reduction in airways obstruction ([1]; RPL554 10 μg/kg iv (combination: + atropine 2 μg/kg)): 7.4 + 1.9% | % Reduction in airways obstruction ([1]; RPL554 20 μg/kg iv (combination: + atropine 2 μg/kg)): 24.6 + 4.3% | % Reduction in airways obstruction ([1]; RPL554 40 μg/kg iv (combination: + atropine 2 μg/kg)): 55.2 + 6.2% | % Reduction in airways obstruction ([1]; RPL554 80 μg/kg iv (combination: + atropine 2 μg/kg)): 65.1 + 5.3% | Time for which the effect was detectable (human isolated bronchi): 4 h | Time of maximal relaxation (human isolated bronchi): 160 ± 20 min | Effect on CCh-induced contraction [3]: abolished | IC50 [3]: 1000 nM | Emax ([2]; acetylcholine EC70 pre-contraction, percentage of papaverine (500 μM) relaxation, mean±SD, n=5, read-out: Emax (relaxation)): 100% | EC50 ([2]; relaxation of acetylcholine pre-contracted bronchi, n=5, read-out: EC50 (geomean, 95% CI)): 21200 nM | Emax at 1 µM ([4]; Homo sapiens, RPL554 1 uM, mean ± SEM, n=5): 70.3 ± 2.7% | Emax at 10 µM ([4]; Homo sapiens, RPL554 10 uM, mean ± SEM, n=5): 58.1% | pD2 of histamine ([4]; RPL554 1 uM): 4.97 ± 0.07*** | pD2 of histamine ([4]; RPL554 10 uM): 4.98 | Effect on contraction induced by histamine ([4]; RPL554 100 μM): completely abolished | Emax at 100 µM ([5]; Homo sapiens, RPL554 100 μM, 10 Hz EFS, read-out: Emax, inhibition of contractile response induced by EFS): 91.3 ± 3.37% | T1/2 (offset, time to evoke half of maximal relaxation) ([5]; RPL554 100 μM, 10 Hz EFS): 23.7 ± 12.3 min | Duration of inhibition of EFS contractile response after exposure ([5]; after termination of drug exposure): at least 5 h | reduction in mean arterial blood pressure [6]: 37.3+6.7%
